{"source": "patent US5432172A", "about": "“Biological applications of alkaloids derived from the tunicate Eudistoma sp” (The Research Foundation of State University of New York, priority 1993, dated 1995)", "key": {"pyruvate kinase": {"tested_on": "pyruvate kinase", "assay": "Pyruvate kinase activity in cultured rat hepatoma FAO cells", "format": "cell-based", "details": "for Km: control 0.14, read-out: Km for the substrate phosphoenolpyruvate (PEP); for inhibition of pyruvate kinase activity: submaximal substrate concentrations; for rise in the Km for substrate (phosphoenolpyruvate): versus control", "method": "FIG. 11 is a graph showing the effects of the Eudistoma alkaloids on pyruvate kinase activity in cultured rat hepatoma FAO cells. Enzyme activity v/Vmax was assayed as described in Example IV in partially purified extracts from cells incubated for 1 h in the absence ( ) or presence of 100 μM CPT-cAMP (.cndot.) and 26 μM segoline A ( ) as a function of substrate concentrations (phosphoenolpyruvate, PEP).\n1. Activity of pyruvate kinase--a key glycolytic enzyme whose activity is inhibited by cAMP-dependent phosphorylation.\nFIG. 11 is a graph showing the effects of the Eudistoma alkaloids on pyruvate kinase activity in cultured rat hepatoma FAO cells. Enzyme activity v/Vmax was assayed in partially purified extracts from cells incubated for 1 h in the absence (squares) or presence of 100 μM 8-(4-chlorophenylthio) cyclic AMP (CPT-cAMP)-CPT-cAMP (circles) and 26 μM Segoline A (triangles) as a function of substrate concentrations (phosphoenolpyruvate, PEP)."}, "[1]": {"tested_on": "normal hamster fibroblast NIL8 cell line", "assay": "Growth and morphology of normal NIL8 fibroblast cells", "format": "cell-based", "details": "12.8 μM Debromoshermilamine, 5 days, single application", "method": "Cells were grown for 5 days in the absence of drugs (A), and in the presence of 25 μM forskolin (B), 1.4 μM Eilatin (C), or 12.8 μM Debromoshermilamine (D). […]\nAs illustrated, a single application of 1.4 μM Eilatin or 12.8 μM Debromoshermilamine to NIL8 cells produced effects which are strikingly similar to those obtained by chronically treating time cells with agents that elevate or mimic cAMP. […] This predilection towards cancer cells is a very desirable property in developing potential drugs for the treatment of cancer."}, "[2]": {"tested_on": "rat anterior pituitary cells", "assay": "Secretion of growth hormone (GH) from dispersed rat anterior pituitary cells", "format": "cell-based", "details": "3 h; increasing concentrations", "from_the_text": "FIG. 13 is a graph showing the effects of Debromoshermilamine on the secretion of growth hormone (GH) from dispersed rat anterior pituitary cells. Each bar represents the mean ±s.e.m of four wells.\n3. Growth hormone release from anterior pituitary cells which is stimulated by a number of hormonal factors that activate the adenylyl cyclase system and elevate cellular cAMP levels, see, Bilezikjian et al., Endocrinology, 113, 1726-1731 (1983); Ray et al., Mol. Cell. Endocrinology, 45, 175-182 (1986) and Gabriel et al., Neuroendocrinology, 50 170-176 (1989).\nFIG. 13 is a graph showing the effects of debromoshermilamine on the secretion of growth hormone (GH) from dispersed rat anterior pituitary cells. Cells grown in 24-well multiwell plates were incubated for 3 h in fresh medium (DME) in the absence (control) or presence of 1 mM DbcAMP, and increasing concentrations of Debromoshermilamine as indicated. Hormone secretion was measured using rat GH radioimmunoassay. Each bar represents the mean ±s.e.m of four wells."}, "[3]": {"tested_on": "neuroblastoma N1E-115 cells", "assay": "Growth and morphological differentiation of mouse neuroblastoma N1E-115 cells", "details": "for range of effective concentrations that inhibited cell proliferation and induced morphological differentiation / effects on cell appearance: N1E-115 cells; for range of effective concentrations that inhibited cell proliferation and induced morphological differentiation: below range no noticeable effect, above range cytotoxic; for effects on cell appearance: morphology; for most effective concentration for the cells tested: summary, cells tested in the present invention", "method": "A,B: Untreated cells, 3 (A) and 8 (B) days after subculture. C,D: Cells grown for 3 (C) and 8 (D) days with 12.8 μM Debromoshermilamine. E,F: Cells grown for 7 days with Isosegoline A (39 μM) and Norsegoline (16.3 μM), respectively.\nA,B: Untreated cells 3 (A) and 6 (B) days after subculture. C,D: Cells grown for 3 (C) and 6 (D) days with 50 μM forskolin. E,F: Cells grown for 3 (E) and 6 (F) days with 39 μM Segoline A. G,H: Cells grown for 3 (G) and 6 (H) days with 0.14 μM Eilatin.\nCells were grown for six days in the absence of drugs (A), or in the presence of: 10 μM 4-methylpyrido[2,3,4-kl]acridine (B), 4 μM pyrido[2,3,4-kl]acridine (C), 0.08 μM Eilatin (D), 75 μM forskolin (E).\nThe inventors chose the neuroblastoma N1E-115 cells because these tumor-derived cells can be induced to express characteristic neuronal properties by a variety of procedures see Spector, \"Electrophysiology of clonal nerve cell lines. In: Excitable Cells in Tissue Culture\", Nelson et al. eds., Plenum, New York 247-277 (1981) and can serve as a useful experimental system in which to explore the effects of the Eudistoma alkaloids on the biological properties of both cancer cells and neuronal cells.\nThe N1E-115 cells were exposed to various concentrations of the six (6) natural products shown in FIG. 1, and of the two synthetic pyridoacridines shown in Scheme III of FIG. 2. […] A,B: Untreated cells, 3 (A) and 8 (B) days after subculture. C,D: Cells grown for 3 (C) and (8) days with 12.8 μM Debromoshermilamine. E,F: Cells grown for 7 days with Isosegoline A (39 μM) and Norsegoline (16.3 μM), respectively. FIG. 5 illustrates the appearance of N1E-115 cells 6 days after replating in the absence (A) and in the presence of 10 μM 4-methylpyrido[2,3,4-kl]acridine (B), or 4 μM pyrido[2,3,4-kl]acridine."}, "PEPCK mRNA": {"tested_on": "PEPCK mRNA", "assay": "Levels of PEPCK mRNA in FTO-2B rat hepatoma cells (Northern blot)", "format": "cell-based", "details": "segoline A 5, 26 and 52 μM; Debromoshermilamine 2.6, 12.8 and 38.4 μM; 4 hours", "method": "FIG. 12 is a graph showing the effects of Eudistoma alkaloids on levels of PEPCK mRNA in FTO-2B rat hepatoma cells. The cells were exposed for 4 hours to serum-free medium which contained: 5 μM CPT-cAMP (lane 1), 5, 26 and 52 μM segoline A (lanes 2-4), 2.6, 12.8 and 38.4 μM Debromoshermilamine (lanes 5-7) or to serum-free medium alone (lane 8).\n2. Induction of mRNA for P-enolpyruvate carboxykinase (PEPCK)--a key enzyme in the gluconeogenesis pathway in liver and kidney cells whose gene transcription rate is stimulated by cAMP see Hod et al., N.Y. Acad. Sci., 478, 31-45 (1986) and Hod et an., J. Biol. Chem., 263, 7747-7752 (1988).\nFIG. 12 is a graph showing the effects of Eudistoma alkaloids on levels of PEPCK mRNA in FTO-2B rat hepatoma cells. The cells were exposed to medium which contained: 5 μM 8-CPT-cAMP, 5, 26 and 52 μM Segoline A, 2.6, 12.8 and 38.4 μM Debromoshermilamine or to control medium. The level of mRNA was determined by Northern blot analysis according to Hod et al., J. Biol. Chem., 259, 15603-15608 (1984) using the plasmid pPCK10rc as a hybridization probe, and quantified by densitometric scanning of the autoradiograms which is shown on the left."}}, "note": "Where two headings read alike, the source gives them in different places."}
{"smiles": "CC(=O)NCCc1c2c(c3nccc4c3c1Nc1ccccc1-4)NC(=O)CS2", "note": "[Debromoshermilamine]", "values": [{"measurement": "Km", "setting": "pyruvate kinase; concentration of alkaloid not given", "value": 460, "unit": "µM"}, {"measurement": "inhibition of pyruvate kinase activity", "setting": "pyruvate kinase", "value": "inhibit pyruvate kinase activity"}, {"measurement": "rise in the Km for substrate (phosphoenolpyruvate)", "setting": "pyruvate kinase", "value": "ca. 3 fold"}, {"measurement": "effect on cell shape of NIL8 cells", "setting": "[1]", "value": "flatter"}, {"measurement": "effect on growth of NIL8 cells", "setting": "[1]", "value": "growth was inhibited"}, {"measurement": "growth hormone release", "setting": "[2]", "value": "stimulate growth hormone release, again, in a dose-dependent manner"}, {"measurement": "range of effective concentrations that inhibited cell proliferation and induced morphological differentiation", "setting": "[3]", "value": "6-32 μM"}, {"measurement": "effects on cell appearance", "setting": "[3]", "value": "a large proportion of very flat cells of considerable size and relatively few neurites"}, {"measurement": "most effective concentration for the cells tested", "setting": "[3]", "value": "6 to 32", "unit": "µM"}, {"measurement": "induction of PEPCK mRNA", "setting": "PEPCK mRNA", "value": "stimulate the induction of PEPCK mRNA in a dose-dependent manner"}]}
{"smiles": "COc1cc2c3c4c(ccnc14)-c1ccccc1N3C1(C)C(=O)NC(=O)C2C1C", "note": "(stereo not shown) [Segoline A]", "values": [{"measurement": "Km", "setting": "pyruvate kinase; 26 μM segoline A, 1 h", "value": 440, "unit": "µM"}, {"measurement": "inhibition of pyruvate kinase activity", "setting": "pyruvate kinase", "value": "inhibit pyruvate kinase activity"}, {"measurement": "rise in the Km for substrate (phosphoenolpyruvate)", "setting": "pyruvate kinase", "value": "ca. 3 fold"}, {"measurement": "effect on cell division and morphological differentiation", "setting": "[3]; 39 μM Segoline A, 3 days, single application", "value": "inhibited cell division and induced morphological differentiation"}, {"measurement": "long-term effect on cell division", "setting": "[3]; 39 μM Segoline A, 6 days, single application", "value": "cell division is completely blocked"}, {"measurement": "range of effective concentrations that inhibited cell proliferation and induced morphological differentiation", "setting": "[3]", "value": "12-52 μM"}, {"measurement": "effects on cell appearance", "setting": "[3]", "value": "flattened cell bodies as well as numerous long neurites"}, {"measurement": "most effective concentration for the cells tested", "setting": "[3]", "value": "12 to 52", "unit": "µM"}, {"measurement": "induction of PEPCK mRNA", "setting": "PEPCK mRNA", "value": "stimulate the induction of PEPCK mRNA in a dose-dependent manner"}]}
